Experimental data published in article PMC10698503, “Phosphatase specificity principles uncovered by MRBLE:Dephos and global substrate identification” (Molecular Systems Biology, 2023).
Non-standard residues stand in square brackets, D forms with d. No end group written: not given here. pT = C[C@@H](OP(=O)(O)O)[C@H](N)C(=O)O

How the values were obtained:
[1] = system: PP2A‐B55α; experiment: Phosphate release assay (PiColorLock / malachite green) with PP2A-B55; assay type: biochemical, human; settings: B55 WT, peptide 120 μM, 80 ng phosphatase, 20 min 30°C
Protocol: PP2A‐B55α holoenzymes were purified from HeLa cells stably expressing FLAG‐tagged B55α as previously described (Kruse et al, [2020]).
In vitro phosphatase assays were performed with E. coli–expressed PP1γ or PP2A‐B55α purified from HeLa cell (ATCC, RRID CVCL_0030) extracts as described previously. […] The PiColorLock inorganic phosphate detection kit (abcam) was used to detect the amount of phosphate released from the phosphorylated peptides.

[2] = target: T1, PP1γ (Homo sapiens, UniProt P36873); experiment: MRBLE:Pep concentration-dependent PP1 binding to bead-bound RVxF peptides; settings: bead-bound peptide, PP1 0-2,000 nM with anti-PP1 and Alexa 647 secondary antibody, 24 h at 4°C, 50 mM Tris pH 7.5, 150 mM NaCl, 0.1% TWEEN 20; median and SD across experimental replicates (n = 3); read-out: Kd, MRBLE-pep (Langmuir isotherm fit)
T1 construct: His; made in house; host or cells: E. coli BL21(DE3)
T1 sequence (P36873 whole entry): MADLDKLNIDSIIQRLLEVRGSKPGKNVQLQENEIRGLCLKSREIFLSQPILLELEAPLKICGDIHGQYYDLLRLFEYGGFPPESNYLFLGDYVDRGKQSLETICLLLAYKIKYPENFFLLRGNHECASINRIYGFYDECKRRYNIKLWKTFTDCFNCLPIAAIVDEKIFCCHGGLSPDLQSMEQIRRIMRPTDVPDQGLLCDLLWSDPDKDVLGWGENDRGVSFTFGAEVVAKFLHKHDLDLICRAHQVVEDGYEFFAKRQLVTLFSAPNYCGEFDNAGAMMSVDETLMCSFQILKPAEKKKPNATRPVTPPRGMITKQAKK
Protocol: After incubating bead‐bound peptide libraries with PP1, an unlabeled anti‐PP1 primary antibody, and an Alexa 647‐labeled secondary antibody, we washed beads and imaged again in both lanthanide and fluorescence channels to identify peptides and quantify the amount of PP1 bound (Fig 5A). Repeating these experiments over eight different PP1 concentrations enabled acquisition of concentration‐dependent binding curves; fitting the mean intensity of all beads with a given code at different concentrations of PP1γ and fitting to a Langmuir isotherm made it possible to quantify absolute affinities (Figs 5B and Appendix Fig S11).
PP1 concentration‐dependent binding to peptides on MRBLEs was done as described previously (Hein et al, [2021a]). In short, ~ 700 beads per code were mixed in and blocked in 700 μL PBS‐T with 5% BSA. PP1 (2 μM) was preincubated in binding buffer (50 mM Tris pH = 7.5, 150 mM NaCl, and 0.1% TWEEN 20) with 1 μM primary (a‐PPP1CC rabbit polyclonal, Bethyl A300‐906A) and 1 μM goat anti‐rabbit IgG Alexa Fluor 647 (Thermo Fischer, A‐21245). […]
We then computed the mean y max value across all of these peptides and refit concentration‐dependent binding curves for all peptide sequences to the Langmuir isotherm equation using this experimentally determined y max value for all peptide sequences and fitting only the K d term. […]

[3] = target: T1, PP1γ; experiment: ITC of RVxF model peptides with PP1γ; assay type: binding; settings: peptide ~450 μM titrated into PP1γ ~35 μM, 25°C, 50 mM sodium phosphate, 150 mM NaCl, 0.5 mM TCEP, pH 7.5, single-site model
Protocol: Prior to ITC experiments, both the protein and the peptides were extensively dialyzed against 50 mM sodium phosphate, 150 mM NaCl, and 0.5 mM TCEP, pH 7.5. All ITC experiments were performed on an Auto‐iTC200 instrument (Microcal, Malvern Instruments Ltd.) at 25°C. Both peptide and PP1γ concentrations were determined using a spectrometer by measuring the absorbance at 280 nm and applying values for the extinction coefficients computed from the corresponding sequences by the ProtParam program (http://web.expasy.org/protparam/). The peptides at approximately 450 μM concentration were loaded into the syringe and titrated into the calorimetric cell containing the PP1γ at ~ 35 μM. The reference cell was filled with distilled water. In all assays, the titration sequence consisted of a single 0.4 μl injection followed by 19 injections, 2 μl each, with 150 s spacing between injections to ensure that the thermal power returns to the baseline before the next injection. The stirring speed was 750 rpm. Control experiments with the peptides injected in the sample cell filled with buffer were carried out under the same experimental conditions. […] The heats per injection normalized per mole of injectant versus the molar ratio [peptide]/[PP1γ] were fitted to a single‐site model. Data were analyzed with MicroCal PEAQ‐ITC (version 1.1.0.1262) analysis software (Malvern Instruments Ltd.).

[4] = system: Venus-PP1; experiment: Affinity purification (pulldown) of YFP/Venus-PP1 from mitotic cells, label-free LC-MS/MS; assay type: binding, human
Excerpt: (§1) We defined interactomes of PP1γ and B55α during mitosis using affinity purification of YFP‐tagged subunits and also proximity‐dependent ligation using miniTurbo to capture interactions at mitotic exit (Appendix Fig S8) (Branon et al, [2018]; Sears et al, [2019]). […] These identified proteins can constitute both regulators and substrates. […] To understand how these protein interactions might shape dephosphorylation, we first aimed at generating interactome networks and overlay regulated sites. We integrated interactomes and information from the STRING database (Szklarczyk et al, [2023]) with our regulated phosphorylation sites to generate a network of complexes and dephosphorylation sites (Fig 4C and Appendix Fig S9A). For PP1, we also integrated information on known and predicted RVxF motifs (Smith et al, [2019]). […] As an example, CASC5 (KNL1) could scaffold PP1 dephosphorylation of CENPC S261, a phosphorylation site in a nuclear localization sequence. In agreement with previous work, PP2A‐B55 regulated dephosphorylation of several nucleoporins at mitotic exit consistent with Nup153 and TPR being present in the interactomes (Cundell et al, [2016]).
(§2) PP1 and B55 cDNAs were cloned into modified versions of pcDNA5/FRT/TO (Invitrogen) to make N‐terminal fusions to YFP, BioID, or TurboID. Stable cell lines were generated into HeLa/FRT/TRex cells (kind gift from S. Taylor), and for YFP affinity, purification cells were synchronized with thymidine and released into nocodazole‐containing media to arrest them in mitosis. Cells were resuspended in lysis buffer (50 mM NaCl, 50 mM Tris 7,4, 1 mM EDTA, 0.1% NP40, 1 mM DTT, and protease inhibitor cocktail), and following sonication, the lysate was clarified by centrifugation. Cell lysate was incubated with GFP‐Trap beads (Chromotek) for 1 h, washed 3 × 1 ml with lysis buffer, and resuspended in SDS–PAGE loading buffer.
(§3) The Q‐Exactive Plus was set to perform an Orbitrap MS1 scan (R = 70 K; AGC target = 1e6) from 350 to 1,500 m/z, followed by HCD MS2 spectra on the 10 most abundant precursor ions detected by Orbitrap scanning (R = 17.5 K; AGC target = 1e5; max ion time = 50 ms) before repeating the cycle. Precursor ions were isolated for HCD by quadrupole isolation at width = 1 m/z and HCD fragmentation at 26 normalized collision energy (NCE). Charge state 2, 3, and 4 ions were selected for MS2. Precursor ions were added to a dynamic exclusion list ± 20 ppm for 15 s. […] Static modifications included carbamidomethylcysteine and variable modifications included oxidized methionine. […] Missing values were imputed from a normal distribution in Perseus to enable statistical analysis and visualization by volcano plot (Tyanova et al, [2016]). Statistical analysis was carried out in Perseus by two‐tailed Student's t‐test.

[5] = system: Venus-B55; experiment: Affinity purification (pulldown) of YFP/Venus-B55 from mitotic cells, label-free LC-MS/MS; assay type: binding, human
Excerpt: as §1, §2, §3

INCENP WT: phosphorylated INCENP 53-67 peptide (T59), wild type (PELMPK[pT]PSQKNRRK; UniProt Q9NQS7 53-67, looked up, fragment)
phosphate released from peptide by PP2A-B55 (in vitro dephosphorylation assay, Fig 3B) ([1]; 50 mM Tris pH 7.4, 1 mM MnCl2, 150 mM NaCl, technical repeat 1): 0,806
phosphate released from peptide by PP2A-B55 (in vitro dephosphorylation assay, Fig 3B) ([1]; technical repeat 2): 0,858
phosphate released from peptide by PP2A-B55 (in vitro dephosphorylation assay, Fig 3B) ([1]; technical repeat 3): 0,812

AKNSRVTFSEDDEII
Kd [2]: 3.4 ± 0.7 µM

AKNSRVTFSEDDEIW
Kd [3]: 0.19 ± 0.01 µM

TOP2A_HUMAN
B55 or PP1? ([4]; assignment of the co-purified protein as interactor of Venus-B55 and/or Venus-PP1 (both pulldowns)): B55/PP1
log2 ratio [Venus-PP1/Venus] ([4]; enrichment in Venus-PP1 pulldown over Venus control, from 3 replicates each): 4.66
log2 IBAQ [Venus-PP1 1] ([4]; pulldown of Venus-PP1 from mitotic cells, label-free LC-MS/MS, log2 IBAQ of co-purified protein, replicate 1): 19.15
log2 IBAQ [Venus-PP1 2] ([4]; pulldown of Venus-PP1 from mitotic cells, label-free LC-MS/MS, log2 IBAQ of co-purified protein, replicate 2): 19.33
log2 IBAQ [Venus-PP1 3] ([4]; pulldown of Venus-PP1 from mitotic cells, label-free LC-MS/MS, log2 IBAQ of co-purified protein, replicate 3): 21.02
log2 ratio [Venus-B55/Venus] ([5]; enrichment in Venus-B55 pulldown over Venus control, from 3 replicates each): 1.41
log2 IBAQ [Venus-B55 1] ([5]; pulldown of Venus-B55 from mitotic cells, label-free LC-MS/MS, log2 IBAQ of co-purified protein, replicate 1): 16.03
log2 IBAQ [Venus-B55 2] ([5]; pulldown of Venus-B55 from mitotic cells, label-free LC-MS/MS, log2 IBAQ of co-purified protein, replicate 2): 16.59
log2 IBAQ [Venus-B55 3] ([5]; pulldown of Venus-B55 from mitotic cells, label-free LC-MS/MS, log2 IBAQ of co-purified protein, replicate 3): 15.37
